# Laboratory results published in patent US20210254272A1, “TEXTILES HAVING ANTIMICROBIAL PROPERTIES” (Livinguard AG, priority 2015, published 2021).
# Test: Leaching test: 100 g fabric soaked in 10 liters stagnant distilled water, 3 days (72 hours)
# Type: physicochemical
# Settings: for Leaching of active ingredients: exhaust 80° C. 60 min, cured 180° C. 2 min, post wash
# Procedure: The test procedure for leaching was as follows: 100 g (grams) of fabric as well as control fabrics were soaked in 10 liters of stagnant distilled water in a closed wide mouth jar. After 3 days (72 hours), the water samples were tested for leached substances as per standard analytical methods.
# The test procedure for leaching was as follows: 100 g (grams) of fabric as well as control fabrics were soaked in 10 liters of stagnant distilled water in a closed wide mouth jar. After 3 days (72 hours), the water samples were tested for leached substances as per standard analytical methods. A weight of 100 g fabric was chosen because in the preferred embodiment of the water filter as described further below, each filter comprises a strip of fabric with 210 g/m^2, 3 meters long and 0.16 meters wide, which corresponds to 100 g of fabric.
structure (smiles),measurement,setting,value
"CCCC1COC(Cn2cncn2)(c2ccc(Cl)cc2Cl)O1 (centres unmarked) [Propiconazole, propiconazole]",Leaching of active ingredients (in ppm),"0.2% each in mixture (o.w.f), exhaust 80° C., 60 min, curing 180° C., 2 min, unwashed",4 ppm
same,Leaching of active ingredients (in ppm),"0.5% each in mixture (o.w.f), exhaust 80° C., 60 min, curing 180° C., 2 min, unwashed",6 ppm
same,Leaching of active ingredients (in ppm),"1.0% each in mixture (o.w.f), exhaust 80° C., 60 min, curing 180° C., 2 min, unwashed",8 ppm
same,Leeching in ppm,"Exhaust + Wash + pad + Wash, exhaust 0.1% o.w.f. each in mixture, 1 gm/liter pad",0.5 ppm
same,Leeching in ppm,"Exhaust + Wash + pad + Wash, exhaust 0.1% o.w.f. each in mixture, 5 gm/liter pad",0.7 ppm
same,Leeching in ppm,"Exhaust + Wash + pad + Wash, exhaust 0.1% o.w.f. each in mixture, 10 gm/liter pad",0.6 ppm
same,Leeching in ppm,"Exhaust + Wash + pad + Wash, exhaust 0.25% o.w.f. each in mixture, 1 gm/liter pad",7 ppm
same,Leeching in ppm,"Exhaust + Wash + pad + Wash, exhaust 0.25% o.w.f. each in mixture, 5 gm/liter pad",7 ppm
same,Leeching in ppm,"Exhaust + Wash + pad + Wash, exhaust 0.25% o.w.f. each in mixture, 10 gm/liter pad",20 ppm
same,Leeching in ppm,"Exhaust + Wash + pad + Wash, exhaust 0.5 (% o.w.f) each in mixture, 1 gm/liter pad",5 ppm
same,Leeching in ppm,"Exhaust + Wash + pad + Wash, exhaust 0.5 (% o.w.f) each in mixture, 5 gm/liter pad",15 ppm
same,Leeching in ppm,"Exhaust + Wash + pad + Wash, exhaust 0.5 (% o.w.f) each in mixture, 10 gm/liter pad",26 ppm
same,Leeching in ppm,"Exhaust + Wash + pad + Wash, exhaust 1.0% o.w.f. each in mixture, 1 gm/liter pad",10 ppm
same,Leeching in ppm,"Exhaust + Wash + pad + Wash, exhaust 1.0% o.w.f. each in mixture, 5 gm/liter pad",19 ppm
same,Leeching in ppm,"Exhaust + Wash + pad + Wash, exhaust 1.0% o.w.f. each in mixture, 10 gm/liter pad",34 ppm
same,Leeching in ppm,"Exhaust + pad + Wash, exhaust 0.1% o.w.f. each in mixture, 1 gm/liter pad",149 ppm
same,Leeching in ppm,"Exhaust + pad + Wash, exhaust 0.1% o.w.f. each in mixture, 5 gm/liter pad",241 ppm
same,Leeching in ppm,"Exhaust + pad + Wash, exhaust 0.1% o.w.f. each in mixture, 10 gm/liter pad",256 ppm
same,Leeching in ppm,"Exhaust + pad + Wash, exhaust 0.25% o.w.f. each in mixture, 1 gm/liter pad",231 ppm
same,Leeching in ppm,"Exhaust + pad + Wash, exhaust 0.25% o.w.f. each in mixture, 5 gm/liter pad",259 ppm
same,Leeching in ppm,"Exhaust + pad + Wash, exhaust 0.25% o.w.f. each in mixture, 10 gm/liter pad",546 ppm
same,Leeching in ppm,"Exhaust + pad + Wash, exhaust 0.5 (% o.w.f) each in mixture, 1 gm/liter pad",475 ppm
same,Leeching in ppm,"Exhaust + pad + Wash, exhaust 0.5 (% o.w.f) each in mixture, 5 gm/liter pad",538 ppm
same,Leeching in ppm,"Exhaust + pad + Wash, exhaust 0.5 (% o.w.f) each in mixture, 10 gm/liter pad",649 ppm
same,Leeching in ppm,"Exhaust + pad + Wash, exhaust 1.0% o.w.f. each in mixture, 1 gm/liter pad",578 ppm
same,Leeching in ppm,"Exhaust + pad + Wash, exhaust 1.0% o.w.f. each in mixture, 5 gm/liter pad",689 ppm
same,Leeching in ppm,"Exhaust + pad + Wash, exhaust 1.0% o.w.f. each in mixture, 10 gm/liter pad",853 ppm
same,Leeching in ppm,"Exhaust + pad, exhaust 0.1% o.w.f. each in mixture, 1 gm/liter pad",194 ppm
same,Leeching in ppm,"Exhaust + pad, exhaust 0.1% o.w.f. each in mixture, 5 gm/liter pad",284 ppm
same,Leeching in ppm,"Exhaust + pad, exhaust 0.1% o.w.f. each in mixture, 10 gm/liter pad",345 ppm
same,Leeching in ppm,"Exhaust + pad, exhaust 0.25% o.w.f. each in mixture, 1 gm/liter pad",317 ppm
same,Leeching in ppm,"Exhaust + pad, exhaust 0.25% o.w.f. each in mixture, 5 gm/liter pad",346 ppm
same,Leeching in ppm,"Exhaust + pad, exhaust 0.25% o.w.f. each in mixture, 10 gm/liter pad",354 ppm
same,Leeching in ppm,"Exhaust + pad, exhaust 0.5 (% o.w.f) each in mixture, 1 gm/liter pad",365 ppm
same,Leeching in ppm,"Exhaust + pad, exhaust 0.5 (% o.w.f) each in mixture, 5 gm/liter pad",456 ppm
same,Leeching in ppm,"Exhaust + pad, exhaust 0.5 (% o.w.f) each in mixture, 10 gm/liter pad",867 ppm
same,Leeching in ppm,"Exhaust + pad, exhaust 1.0% o.w.f. each in mixture, 1 gm/liter pad",596 ppm
same,Leeching in ppm,"Exhaust + pad, exhaust 1.0% o.w.f. each in mixture, 5 gm/liter pad",810 ppm
same,Leeching in ppm,"Exhaust + pad, exhaust 1.0% o.w.f. each in mixture, 10 gm/liter pad",1456 ppm
same,Leeching in ppm,"Exhaust +Wash + pad, exhaust 0.1% o.w.f. each in mixture, 1 gm/liter pad",89 ppm
same,Leeching in ppm,"Exhaust +Wash + pad, exhaust 0.1% o.w.f. each in mixture, 5 gm/liter pad",154 ppm
same,Leeching in ppm,"Exhaust +Wash + pad, exhaust 0.1% o.w.f. each in mixture, 10 gm/liter pad",232 ppm
same,Leeching in ppm,"Exhaust +Wash + pad, exhaust 0.25% o.w.f. each in mixture, 1 gm/liter pad",184 ppm
same,Leeching in ppm,"Exhaust +Wash + pad, exhaust 0.25% o.w.f. each in mixture, 5 gm/liter pad",215 ppm
same,Leeching in ppm,"Exhaust +Wash + pad, exhaust 0.25% o.w.f. each in mixture, 10 gm/liter pad",321 ppm
same,Leeching in ppm,"Exhaust +Wash + pad, exhaust 0.5 (% o.w.f) each in mixture, 1 gm/liter pad",369 ppm
same,Leeching in ppm,"Exhaust +Wash + pad, exhaust 0.5 (% o.w.f) each in mixture, 5 gm/liter pad",413 ppm
same,Leeching in ppm,"Exhaust +Wash + pad, exhaust 0.5 (% o.w.f) each in mixture, 10 gm/liter pad",578 ppm
same,Leeching in ppm,"Exhaust +Wash + pad, exhaust 1.0% o.w.f. each in mixture, 1 gm/liter pad",469 ppm
same,Leeching in ppm,"Exhaust +Wash + pad, exhaust 1.0% o.w.f. each in mixture, 5 gm/liter pad",574 ppm
same,Leeching in ppm,"Exhaust +Wash + pad, exhaust 1.0% o.w.f. each in mixture, 10 gm/liter pad",657 ppm
same,Leaching of active ingredients (in ppm),"exhaust 60° C., solution dosage 1% o.w.f, process time 60 min",24 ppm
same,Leaching of active ingredients (in ppm),"exhaust 60° C., solution dosage 1% o.w.f, process time 90 min",12 ppm
same,Leaching of active ingredients (in ppm),"exhaust 60° C., solution dosage 1% o.w.f, process time 120 min",13 ppm
same,Leaching of active ingredients (in ppm),"exhaust 60° C., solution dosage 1% o.w.f, process time 180 min",13 ppm
same,Leaching of active ingredients (in ppm),"exhaust 60° C., solution dosage 1% o.w.f, process time 240 min",15 ppm
same,Leaching of active ingredients,mixture 0.2% o.w.f. each,0.3 ppm
same,Leaching of active ingredients,mixture 0.5% o.w.f. each,0.3 ppm
same,Leaching of active ingredients,mixture 1% o.w.f. each,0.9 ppm
same,Leaching of active ingredients (in ppm),"exhaust 80° C., 1% o.w.f, 60 min, curing 170° C., curing dwell time 0.5 min",28 ppm
same,Leaching of active ingredients (in ppm),"exhaust 80° C., 1% o.w.f, 60 min, curing 170° C., curing dwell time 1.0 min",24 ppm
same,Leaching of active ingredients (in ppm),"exhaust 80° C., 1% o.w.f, 60 min, curing 170° C., curing dwell time 1.5 min",21 ppm
same,Leaching of active ingredients (in ppm),"exhaust 80° C., 1% o.w.f, 60 min, curing 170° C., curing dwell time 2.0 min",15 ppm
same,Leaching of active ingredients (in ppm),"exhaust 80° C., 1% o.w.f, 60 min, curing 170° C., curing dwell time 2.5 min",17 ppm
same,Leaching of active ingredients (in ppm),"exhaust 80° C., 1% o.w.f, 60 min, curing 170° C., curing dwell time 3.0 min",17 ppm
same,Leaching of active ingredients (in ppm),"exhaust 80° C., 1% o.w.f, 60 min, curing 180° C., curing dwell time 0.5 min",24 ppm
same,Leaching of active ingredients (in ppm),"exhaust 80° C., 1% o.w.f, 60 min, curing 180° C., curing dwell time 1.0 min",12 ppm
same,Leaching of active ingredients (in ppm),"exhaust 80° C., 1% o.w.f, 60 min, curing 180° C., curing dwell time 1.5 min",13 ppm
same,Leaching of active ingredients (in ppm),"exhaust 80° C., 1% o.w.f, 60 min, curing 180° C., curing dwell time 2.0 min",3 ppm
same,Leaching of active ingredients (in ppm),"exhaust 80° C., 1% o.w.f, 60 min, curing 180° C., curing dwell time 2.5 min",13 ppm
same,Leaching of active ingredients (in ppm),"exhaust 80° C., 1% o.w.f, 60 min, curing 180° C., curing dwell time 3.0 min",13 ppm
same,Leaching of active ingredients (in ppm),"exhaust 80° C., 1% o.w.f, 60 min, curing dwell time at 190° C. (title): 0.5 min",23 ppm
same,Leaching of active ingredients (in ppm),"exhaust 80° C., 1% o.w.f, 60 min, curing dwell time at 190° C. (title): 1.0 min",12 ppm
same,Leaching of active ingredients (in ppm),"exhaust 80° C., 1% o.w.f, 60 min, curing dwell time at 190° C. (title): 1.5 min",12 ppm
same,Leaching of active ingredients (in ppm),"exhaust 80° C., 1% o.w.f, 60 min, curing dwell time at 190° C. (title): 2.0 min",10 ppm
same,Leaching of active ingredients (in ppm),"exhaust 80° C., 1% o.w.f, 60 min, curing dwell time at 190° C. (title): 2.5 min",27 ppm
same,Leaching of active ingredients (in ppm),"exhaust 80° C., 1% o.w.f, 60 min, curing dwell time at 190° C. (title): 3.0 min",34 ppm
